Results reported in ChEMBL document CHEMBL1154834, “A theoretical study of the structure-radical scavenging activity of trans-resveratrol analogues and cis-resveratrol in gas phase and water environment” (Eur J Med Chem, 2010).

Assay: Antioxidant activity assessed as concentration required to double citronellal oxidation half life by thermo-oxidation method relative to control
Format: functional
Molecule `Oc1ccc(/C=C/c2cc(O)cc(O)c2)cc1` has an Activity of 135 µM.
`Oc1ccc(CCc2cc(O)cc(O)c2)cc1` showed an Activity of 260 µM.
`Oc1ccc(/C=C\c2cc(O)cc(O)c2)cc1` showed an Activity of 241 µM.
